ChEMBL document CHEMBL1157222, “Anxiolytic effect of natural galphimines from Galphimia glauca and their chemical derivatives” (2006)
Active and inactive are the calls of the source. The rule behind the calls is not given here.

Experiments:
[1] = tested on: Mus musculus; assay: Anxiolytic effect in ICR mouse assessed as increase in number of entries on open arm at 15 mg/kg, ip administered 1 hr before by elevated plus-maze test; type: functional; conditions: route intraperitoneal
[2] = tested on: Mus musculus; assay: Anxiolytic effect in ICR mouse assessed as increase in time spent on open arm at 15 mg/kg, ip administered 1 hr before by elevated plus-maze test; type: functional; conditions: route intraperitoneal
[3] = tested on: Mus musculus; assay: Anxiolytic effect in ICR mouse assessed as […] in time spent on open arm at 2.0 mg/kg, ip administered 1 hr before by elevated plus-maze test; type: functional, organism-based; set-up: dose 2 mg/kg
[4] = tested on: Mus musculus; assay: Anxiolytic effect in ICR mouse assessed as […] in entries of open arm at 2.0 mg/kg, ip administered 1 hr before by elevated plus-maze test; type: functional, organism-based; set-up: dose 2 mg/kg
[5] = tested on: Mus musculus; assay: Anxiolytic effect in ICR mouse assessed as increase in entries of open arm at 1.0 mg/kg, ip administered 1 hr before by elevated plus-maze test; type: functional, organism-based; set-up: dose 1 mg/kg
[6] = tested on: Mus musculus; assay: Anxiolytic effect in ICR mouse assessed as increase in time spent on open arm at 1.0 mg/kg, ip administered 1 hr before by elevated plus-maze test; type: functional, organism-based; set-up: dose 1 mg/kg

Row | Compound | Activity [1] [%] | Activity [2] [%] | also measured
1 | COC(=O)CC[C@H]1[C@]2(C)CC[C@@]3(C(=O)OC)[C@]4(O)CC(C)=CC[C@]4(C)CC[C@]3(C)[C@H]2[C@H](O)[C@H](O)[C@]1(CO)[C@@H](C)O | 61.8 | 76.8 | –
2 | C=C(C)[C@@H]1[C@H]2OC(=O)[C@@H]1[C@]1(O)C[C@H]3OC34C(=O)O[C@H]2[C@@]41C.CC(C)(O)[C@@H]1[C@H]2OC(=O)[C@@H]1[C@]1(O)C[C@H]3OC34C(=O)O[C@H]2[C@@]41C (stereo not given in full) | – | – | Activity [3]: Active; Activity [4]: Active
3 | COC(=O)[C@@]12CC[C@@]3(C)[C@@H]4C=CC(=O)OC[C@]4([C@@H](C)O)C[C@@H](O)[C@@H]3[C@@]1(C)CC[C@@]1(C)CC=C(C)C[C@]12O [GALPHIMINE B] | 72.5 | 76.3 | –
4 | CN1C(=O)CN=C(c2ccccc2)c2cc(Cl)ccc21 | – | – | Activity [5]: Active; Activity [6]: Active
5 | COC(=O)[C@@]12CC[C@@]3(C)[C@@H]4C=CC(=O)OC[C@]4([C@@H](C)O)[C@@H](O)[C@@H](O)[C@@H]3[C@@]1(C)CC[C@@]1(C)CC=C(C)C[C@]12O [GALPHIMINE A] | 76.8 | 68.3 | –
